Experimental data from patent US20240041899A1, “SOLID PREPARATION” (ASKA Pharmaceutical Co., Ltd., priority 2020, published 2024).

Assays:
Type in all cases: in vivo
[1] = tested on: rats having the urination disorder associated with diabetes; assay: Test Example 6: urination disorder model associated with streptozocin-induced diabetes, compound A versus compound C; details: STZ diabetes model
Protocol: As described below, a model of a urination disorder associated with streptozocin-induced diabetes was prepared as a urination disorder model in accordance with Test Example 4 to evaluate the effects of the compound A and the compound C on a urination disorder. This model has no benign prostatic hyperplasia and is a model of a urination disorder associated with neuropathy and smooth muscle contraction disorder.
The body weights of Rats (male, Crl:CD(SD), 5-week-old; Charles River Laboratories Japan, Inc.) were measured. On the basis of the body weight, the rats were grouped or divided into two (2) groups. The day after the rats were grouped, a first group received intraperitoneal administration of a citrate buffer (pH 4.5) (10 mL/kg) having a concentration of 0.1 mmol/L, and a second group received intraperitoneal administration of streptozocin (STZ; Sigma-Aldrich) (50 mg/kg). Streptozocin (STZ) was administered in the form of a solution of streptozocin having a concentration of 5 mg/mL in the citrate buffer.
About one (1) week after streptozocin (STZ) was administered, the body weight and the fasting blood glucose were measured. In the streptozocin (STZ) administration group (the second group), individuals having a fasting blood glucose level of not less than 300 mg/dL were used as animals with induced diabetes. These animals with induced diabetes are a model having no abnormality of the prostate (having no benign prostatic hyperplasia). On the basis of the body weight and the fasting blood glucose level, the animals (models) with induced diabetes were grouped or divided into three (3) groups by randomized, multivariable block allocation.
To the three model groups with induced diabetes, a 0.5 v/v % Polysorbate 80 solution (0.5% P) (10 mL/kg), the compound A (3 mg/kg), and the compound C (dutasteride) (0.3 mg/kg) were orally administered, respectively, wherein the administration schedule in all groups was a frequency of once a day, only on weekdays, over four (4) weeks. Moreover, to the above-mentioned first group, a 0.5 v/v % Polysorbate 80 solution (0.5% P) (10 mL/kg) was orally administered in the same administration schedule (normal group). On the last day of administration, a cannula was inserted into and secured to the dome of the bladder under isoflurane anesthesia, and cystometry (Cystometogram, CMG) was conducted in the order of under awake condition and under urethane anesthesia to measure the intravesical pressure, the voided volume, and the residual urine volume. After the completion of the measurement, the blood was collected under deep isoflurane anesthesia, and then the prostate (ventral prostate, dorsolateral prostate) was extracted and each was weighed. Moreover, the blood glucose level in the collected blood was measured.
Normal group: citrate buffer 10 mL/kg (intraperitoneal administration), 0.5% P 10 mL/kg (oral administration) (n=10) • Solvent group (control group): STZ 50 mg/kg (intraperitoneal administration), 0.5% P 10 mL/kg (oral administration) (n=10) • Group A3: STZ 50 mg/kg (intraperitoneal administration), Compound A 3 mg/kg (oral administration) (n=10) • Group C0.3: STZ 50 mg/kg (intraperitoneal administration), Compound C (dutasteride) 0.3 mg/kg (oral administration) (n=10)
Urination parameter: In the same manner as in Test Example 4, the residual urine volume (mL) and the urination efficiency (%) were determined as urination parameters in each urination, and the average value of two measurements was taken as a measured value of each individual.
Prostate weight: In the same manner as in Test Example 4, the weight of the prostate (ventral prostate, dorsolateral prostate, and whole) was converted to a tissue weight per 100 g of the body weight. For Group A3, which received the compound A, and Group C0.3, which received the compound C, the inhibition rate of the weight of the prostate relative to the weight of the prostate in the solvent group was calculated (with one decimal place). […]

[2] = tested on: lower urinary tract obstruction model of rats (female); assay: Test Example 1: urination function in lower urinary tract obstruction model of female rats; details: oral once a day 2 weeks, Compound B 3 mg/kg and 10 mg/kg
Text: A lower urinary tract obstruction model of rats was used as a test system. A test substance was orally administered to the lower urinary tract obstruction model repeatedly over two (2) weeks to examine the action on the urination function in the lower urinary tract obstruction model.
More specifically, the rats (female, Crl:CD(SD), 8-week-old; Charles River Laboratories Japan, Inc.) were operated to form lower urinary tract obstruction and repeatedly received oral administration of the test substance at a frequency of once a day over two (2) weeks. After the completion of the administration, each rat was subjected to bladder catheterization under anesthesia, cystometry under no anesthesia, then cystometry under urethane anesthesia, and euthanasia under deep anesthesia, and the tissues (bladder, kidney) of the rat were extracted or surgically removed. As a normal group, the rats without operation for forming lower urinary tract obstruction were used.
The test system, the test substances, and the dosage are as follows. • Normal group: 0.5 v/v % Polysorbate 80 solution, 10 mL/kg (n=6) • Solvent group (control group): 0.5 v/v % Polysorbate 80 solution, 10 mL/kg (n=15) • Group A: Compound A, 10 mg/kg (n=15) • Group B3: Compound B, 3 mg/kg (n=7) • Group B10: Compound B, 10 mg/kg (n=7)
After urination, the residual urine was aspirated from the outlet end of the catheter placed in the bladder to measure the volume (mL) of the residual urine.
After urination, the weight of the voided urine was measured to determine the voided volume (g=mL), and then the urination efficiency was calculated by the following equation: Urination efficiency (%)=[(Voided volume (mL))/(Voided volume (mL)+Residual urine volume (mL))]×100
Bladder capacity (mL)=Voided volume (mL)+Residual urine volume (mL)
Moreover, the wet weight of the extracted bladder and that of the extracted kidney were measured.

ovariectomized rats = assay: Test Example 5: antiprogesterone activity, uterine weight associated with rat deciduoma formation; details: Rattus norvegicus, 192 h; ovariectomized rats, estrone + progesterone, oral 3 mg/kg once a day 8 days, compared with the solvent group; read-out: inhibition rate (increase of uterine weight, deciduoma formation)
Protocol: For the compound A and the compound D (mifepristone), the antiprogesterone activity was measured. Specifically, a sex hormone and a test substance were repeatedly administered to ovariectomized rats as a test system to examine the antiprogesterone action (antiprogesterone activity) based on, as an index, the fluctuation of the uterine weight (the inhibitory action relative to the increase of the weight) associated with rat deciduoma formation.
More specifically, rats (female, Crl:CD(SD), 5-week-old: Charles River Laboratories Japan, Inc.) were subjected to ovariectomy, and from one (1) week after the ovariectomy, a high dose estrone of 5 μg/one animal was hypodermically administered to the rats once a day for three (3) days. From the day after one day rest period, the rats received, once a day over eight (8) days, hypodermic administration of a low dose estrone (1 μg/one animal), intramuscular administration of progesterone (6 mg/kg), and oral administration of a test substance. In the middle of the administration, on Day 4 of the start of administration, the rats were subjected to a stimulation treatment of decidualization reaction to the right uterus. The day after the final administration, the uterine weight (right uterine body) was measured (n=6). Group E was subjected to ovariectomy and a stimulation treatment of decidualization reaction but was not subjected to a hormone treatment.
Group E: rats with ovariectomy without hormone treatment 0.5 v/v % Polysorbate 80 solution, 10 mL/kg (n=6) • Solvent group (control group): 0.5 v/v % Polysorbate 80 solution, 10 mL/kg (n=6) • Group A3: Compound A, 3 mg/kg (n=6) • Group A10: Compound A, 10 mg/kg (n=6) • Group A30: Compound A, 30 mg/kg (n=6) • Group D: Compound D (mifepristone), 3 mg/kg (n=6)

[3] = Compound C 0.3 mg/kg, in comparison with the solvent group
[4] = Compound C oral 0.3 mg/kg, 4 weeks
[5] = Compound C oral 0.3 mg/kg, relative to solvent group
[6] = female rats, lower urinary tract obstruction, vs control group

C[C@]12C=CC(=O)N[C@@H]1CC[C@@H]1[C@@H]2CC[C@]2(C)[C@@H](C(=O)Nc3cc(C(F)(F)F)ccc3C(F)(F)F)CC[C@@H]12 [Compound C, dutasteride, reference compound]
position in nomogram analysis (bladder contraction force) ([1]; Compound C 0.3 mg/kg): at almost the same position as the solvent group
therapeutic effect on diabetes ([1]; Compound C 0.3 mg/kg): no therapeutic effect
weights of the ventral prostate, the dorsolateral prostate, and the whole prostate ([1]; Compound C 0.3 mg/kg, compared with the solvent group (P<0.05)): significant decrease
residual urine volume, cystometry (CMG) under awake condition [1, 3]: did not statistically affect
urination efficiency, cystometry (CMG) under awake condition [1, 3]: did not statistically affect
effect on the blood glucose level ([1]; Compound C 0.3 mg/kg, vs solvent group): did not statistically affect
Prostate weight, ventral prostate ([1]; Compound C (dutasteride) oral 0.3 mg/kg, 4 weeks): 58.4 ± 8.4 mg/100 g body weight
Blood glucose level [1, 4]: 984.2 ± 282.0 mg/dL
Prostate weight, dorsolateral prostate [1, 4]: 40.5 ± 6.3 mg/100 g body weight
Prostate weight, whole [1, 4]: 98.9 ± 12.2 mg/100 g body weight
Dorsolateral prostate atrophy rate [1, 5]: (37.5%)
Ventral prostate atrophy rate [1, 5]: (42.7%)
Whole prostate atrophy rate [1, 5]: (40.7%)

CC(=O)O[C@]1(C(C)=O)CC[C@H]2[C@@H]3C=C(Cl)C4=CC(=O)OC[C@]4(C)[C@H]3CC[C@@]21C [Compound B, 17α-acetoxy-6-chloro-2-oxa-4,6-pregnadiene-3,20-dione, reference compound]
survival rate ([2]; female lower urinary tract obstruction rats): decreased
wet weights of the bladder and the kidney ([2]; female rats, lower urinary tract obstruction): rather in the direction of increasing
residual urine volume ([2]; female rats, lower urinary tract obstruction, vs control (solvent) group): significantly increased
bladder capacity [2, 6]: significantly increased
urination efficiency [2, 6]: reduced

CC#C[C@]1(O)CC[C@H]2[C@@H]3CCC4=CC(=O)CCC4=C3[C@@H](c3ccc(N(C)C)cc3)C[C@@]21C [Compound D, mifepristone, reference compound]
inhibition at 3 mg/kg (ovariectomized rats): 89.5%
